Experimental data reported in patent US20190124924A1, “FUNGAL CONTROL OF WHITE MOLD” (DOW AGROSCIENCES LLC, priority 2015, published 2019).

Tests used:
Sclerotinia sclerotiorum [1] = test: Field trials in oilseed rape, incidence of white mold and yield; format: in vivo; details: single application; for Yield of Oilseed Rape: untreated 4.08; for Percent (%) Incidence of Sclerotinia sclerotiorum at B65-B67 Growth Stage in Oilseed Rape: untreated 55
Sclerotinia sclerotiorum [2] = test: Inhibition of mycelial growth by fungicides in Petri dishes (growth medium + fungicide); format: cell-based; details: for inhibition at 0.1 ppm / inhibition at 1 ppm / inhibition at 10 ppm / inhibition at 100 ppm: Sclerotinia sclerotiorum, 192 h, read-out: Percent (%) Inhibition of Mycelial Growth of Sclerotinia sclerotiorum
Protocol: Evaluation of Inhibition of Mycelial Growth by Fungicides (Sclerotinia sclerotiorum; Bayer code: […]): The growth inhibition of the fungus (Sclerotinia sclerotiorum) was assessed in Petri dishes containing the growth medium+fungicide at different concentrations. […] The number of sclerotia were counted. A completely randomized design with three replicates was used. Treatments consisted of fungicide compounds including Formula I, fluazinam, thiophanate-methyl, and procymidone.

Sclerotinia sclerotiorum [3] = test: Inhibition of Sclerotinia sclerotiorum on detached soybean leaves; format: in vivo; details: read-out: Percent (%) Inhibition of Sclerotinia sclerotiorum on Detached Soybean Leaves
Protocol: Evaluation of Inhibition of Sclerotinia sclerotiorum on Detached Soybean Leaves: Detached leaves of soybean were immersed for 3 seconds (s) in fungicide solutions at different concentrations and placed in Petri dishes. […] Symptoms were assessed for percent disease severity. Three leaves per plate with three replicates in a completely randomized design. Treatments consisted of fungicide compounds including Formula I, fluazinam, thiophanate-methyl, and procymidone.

Sclerotinia sclerotiorum [4] = test: Field trial in dry bean, incidence of white mold; format: in vivo; details: two applications R5 and R6, untreated 12.5
Protocol: A field trial in dry bean was carried out in the state of Sao Paulo, Brazil. Two applications of the fungicides were done at growth stages R5 (first bloom) and R6 (full bloom) by using a carbon dioxide (CO2) backpack sprayer at an application rate of 600 liters per hectare (Uha). […] Treatments consisted of fungicide compounds including Formula I, fluazinam, thiophanate-methyl, and procymidone.

## OC(Cc1ccccc1Cl)(Cn1nc[nH]c1=S)C1(Cl)CC1 (racemic) [Prothioconazole, 2-[(2RS)-2-(1-chlorocyclopropyl)-3-(2-chlorophenyl)-2-hydroxypropyl]-2H-1,2,4-triazole-3(4H)-thione]
Sclerotinia sclerotiorum [1]; 150 g ai/ha
  Yield of Oilseed Rape: 4.4 T/ha
  Percent (%) Incidence of Sclerotinia sclerotiorum at B65-B67 Growth Stage in Oilseed Rape: 31%
Sclerotinia sclerotiorum [1]; 173 g ai/ha
  Yield of Oilseed Rape: 4.49 T/ha
  Percent (%) Incidence of Sclerotinia sclerotiorum at B65-B67 Growth Stage in Oilseed Rape: 20%

## O=C(Nc1ccccc1-c1ccc(Cl)cc1)c1cccnc1Cl [Boscalid, boscalid]
Sclerotinia sclerotiorum [1]; 250 g ai/ha
  Yield of Oilseed Rape: 4.34 T/ha
  Percent (%) Incidence of Sclerotinia sclerotiorum at B65-B67 Growth Stage in Oilseed Rape: 4%

## COc1ccnc(C(=O)N[C@H]2COC(=O)[C@H](Cc3ccccc3)[C@@H](OC(=O)C(C)C)[C@H](C)OC2=O)c1OCOC(=O)C(C)C [Compound I, (3S,6S,7R,8R)-8-benzyl-3-(3-((isobutyryloxy)methoxy)-4-methoxypicolinamido)-6-methyl-4,9-dioxo-1,5-dioxonan-7-yl isobutyrate]
Sclerotinia sclerotiorum [2]; 0.1 ppm
  Number of Sclerotinia Formed per Colony: 3.33
Sclerotinia sclerotiorum [2]; 1 ppm
  Number of Sclerotinia Formed per Colony: 2.33
Sclerotinia sclerotiorum [2]; 10 ppm
  Number of Sclerotinia Formed per Colony: 1.67
Sclerotinia sclerotiorum [2]; 100 ppm
  Number of Sclerotinia Formed per Colony: 1.33
Sclerotinia sclerotiorum [2]
  inhibition at 0.1 ppm: 28.3%
  inhibition at 1 ppm: 72.4%
  inhibition at 10 ppm: 80.7%
  inhibition at 100 ppm: 91%
Sclerotinia sclerotiorum [3]
  inhibition at 0.1 ppm: 8.63%
  inhibition at 1 ppm: 66.1%
  inhibition at 10 ppm: 92.5%
  inhibition at 100 ppm: 100%
Sclerotinia sclerotiorum [4]; 120 g ai/ha
  Percent (%) Incidence of Sclerotinia sclerotiorum at R7 Growth Stage on Dry Bean: 3.5%
Sclerotinia sclerotiorum [4]; 240 g ai/ha
  Percent (%) Incidence of Sclerotinia sclerotiorum at R7 Growth Stage on Dry Bean: 1%
Sclerotinia sclerotiorum [1]; 100 g ai/ha
  Yield of Oilseed Rape: 4.22 T/ha
  Percent (%) Incidence of Sclerotinia sclerotiorum at B65-B67 Growth Stage in Oilseed Rape: 24%
Sclerotinia sclerotiorum [1]; 130 g ai/ha
  Yield of Oilseed Rape: 4.29 T/ha
  Percent (%) Incidence of Sclerotinia sclerotiorum at B65-B67 Growth Stage in Oilseed Rape: 24%
Sclerotinia sclerotiorum [1]; 150 g ai/ha
  Yield of Oilseed Rape: 4.23 T/ha
  Percent (%) Incidence of Sclerotinia sclerotiorum at B65-B67 Growth Stage in Oilseed Rape: 19%
Sclerotinia sclerotiorum [1]; 200 g ai/ha
  Yield of Oilseed Rape: 4.48 T/ha
  Percent (%) Incidence of Sclerotinia sclerotiorum at B65-B67 Growth Stage in Oilseed Rape: 14%

## O=[N+]([O-])c1cc(C(F)(F)F)c(Cl)c([N+](=O)[O-])c1Nc1ncc(C(F)(F)F)cc1Cl [Fluazinam, fluazinam]
Sclerotinia sclerotiorum [2]; 0.1 ppm
  Number of Sclerotinia Formed per Colony: 5.7
Sclerotinia sclerotiorum [2]; 1 ppm
  Number of Sclerotinia Formed per Colony: 4.3
Sclerotinia sclerotiorum [2]; 10 ppm
  Number of Sclerotinia Formed per Colony: 0
Sclerotinia sclerotiorum [2]; 100 ppm
  Number of Sclerotinia Formed per Colony: 0
Sclerotinia sclerotiorum [2]; 0.1 ppm, 22° C., 8 days
  inhibition at 0.1 ppm: 59.7%
Sclerotinia sclerotiorum [2]; 1 ppm, 22° C., 8 days
  inhibition at 1 ppm: 71.6%
Sclerotinia sclerotiorum [2]; 10 ppm, 22° C., 8 days
  inhibition at 10 ppm: 82.6%
Sclerotinia sclerotiorum [2]; 100 ppm, 22° C., 8 days
  inhibition at 100 ppm: 100%
Sclerotinia sclerotiorum [3]; 0.1 ppm, leaves immersed 3 s
  inhibition at 0.1 ppm: 25.9%
Sclerotinia sclerotiorum [3]; 1 ppm, leaves immersed 3 s
  inhibition at 1 ppm: 53.5%
Sclerotinia sclerotiorum [3]; 10 ppm, leaves immersed 3 s
  inhibition at 10 ppm: 66.1%
Sclerotinia sclerotiorum [3]; 100 ppm, leaves immersed 3 s
  inhibition at 100 ppm: 100%
Sclerotinia sclerotiorum [4]; 500 g ai/ha
  Percent (%) Incidence of Sclerotinia sclerotiorum at R7 Growth Stage on Dry Bean: 0.8%

## CC12CC1(C)C(=O)N(c1cc(Cl)cc(Cl)c1)C2=O (centres unmarked) [Procymidone, procymidone]
Sclerotinia sclerotiorum [2]; 0.1 ppm
  Number of Sclerotinia Formed per Colony: 18.67
Sclerotinia sclerotiorum [2]; 1 ppm
  Number of Sclerotinia Formed per Colony: 16.2
Sclerotinia sclerotiorum [2]; 10 ppm
  Number of Sclerotinia Formed per Colony: 1.67
Sclerotinia sclerotiorum [2]; 100 ppm
  Number of Sclerotinia Formed per Colony: 0
Sclerotinia sclerotiorum [2]; 0.1 ppm, 22° C., 8 days
  inhibition at 0.1 ppm: 10%
Sclerotinia sclerotiorum [2]; 1 ppm, 22° C., 8 days
  inhibition at 1 ppm: 24.5%
Sclerotinia sclerotiorum [2]; 10 ppm, 22° C., 8 days
  inhibition at 10 ppm: 68.2%
Sclerotinia sclerotiorum [2]; 100 ppm, 22° C., 8 days
  inhibition at 100 ppm: 100%
Sclerotinia sclerotiorum [3]; 0.1 ppm, leaves immersed 3 s
  inhibition at 0.1 ppm: 19.5%
Sclerotinia sclerotiorum [3]; 1 ppm, leaves immersed 3 s
  inhibition at 1 ppm: 59.8%
Sclerotinia sclerotiorum [3]; 10 ppm, leaves immersed 3 s
  inhibition at 10 ppm: 85.1%
Sclerotinia sclerotiorum [3]; 100 ppm, leaves immersed 3 s
  inhibition at 100 ppm: 100%

## COC(=O)NC(=S)Nc1ccccc1NC(=S)NC(=O)OC [Thiophanate-Methyl, thiophanate-methyl]
Sclerotinia sclerotiorum [2]; 0.1 ppm
  Number of Sclerotinia Formed per Colony: 19.25
Sclerotinia sclerotiorum [2]; 1 ppm
  Number of Sclerotinia Formed per Colony: 17.56
Sclerotinia sclerotiorum [2]; 10 ppm
  Number of Sclerotinia Formed per Colony: 0
Sclerotinia sclerotiorum [2]; 100 ppm
  Number of Sclerotinia Formed per Colony: 0
Sclerotinia sclerotiorum [2]; 0.1 ppm, 22° C., 8 days
  inhibition at 0.1 ppm: 0%
Sclerotinia sclerotiorum [2]; 1 ppm, 22° C., 8 days
  inhibition at 1 ppm: 32.2%
Sclerotinia sclerotiorum [2]; 10 ppm, 22° C., 8 days
  inhibition at 10 ppm: 78.3%
Sclerotinia sclerotiorum [2]; 100 ppm, 22° C., 8 days
  inhibition at 100 ppm: 100%
Sclerotinia sclerotiorum [3]; 0.1 ppm, leaves immersed 3 s
  inhibition at 0.1 ppm: 20.7%
Sclerotinia sclerotiorum [3]; 1 ppm, leaves immersed 3 s
  inhibition at 1 ppm: 43.1%
Sclerotinia sclerotiorum [3]; 10 ppm, leaves immersed 3 s
  inhibition at 10 ppm: 87.4%
Sclerotinia sclerotiorum [3]; 100 ppm, leaves immersed 3 s
  inhibition at 100 ppm: 100%
